Consider one substance from article PMC7579925, “Complementary NAD^+ replacement strategies fail to functionally protect dystrophin-deficient muscle” (Skeletal Muscle, 2020).

For this assay, the target named is T1, CD38 (Mus musculus, UniProt P56528).
T1 construct: recombinant soluble (extracellular) domain, expressed in and purified from Pichia pastoris
T1 sequence (P56528 45-304 limits assumed): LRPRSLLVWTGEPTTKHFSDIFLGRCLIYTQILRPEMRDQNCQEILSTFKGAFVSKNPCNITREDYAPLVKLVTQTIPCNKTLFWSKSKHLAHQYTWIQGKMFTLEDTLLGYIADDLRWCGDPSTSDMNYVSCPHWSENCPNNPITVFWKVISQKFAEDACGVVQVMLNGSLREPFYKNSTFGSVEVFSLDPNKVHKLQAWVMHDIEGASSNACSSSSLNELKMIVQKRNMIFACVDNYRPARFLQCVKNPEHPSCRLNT
In words: colorimetric base-exchange (transglycosidation) assay, dose-response. The format is biochemical.

On to GSK978A, for which the IC50 is ~ 12 ng/mL.
